The source of these data is patent US9206124B2, “Treatment of drug-resistant cancer with 2-aryl-2-(3-indolyl) acetohydroxamates” (New Mexico Technical Research Foundation, priority 2013, dated 2015).

Structures are written as SMILES.

Test [1] has as its system HeLa cervical adenocarcinoma cells. The test can be described thus: MTT antiproliferative assay, HeLa. Type of test: cell-based. Conditions: Homo sapiens, Table 1, 48 h treatment, ± SD, read-out: cell viability GI50, HeLa. The source says:
This finding led to an exploration of the SAR analyses by synthesizing the first generation compounds 3 containing diverse substituents at different positions in the 2-aryl-2-(3-indolyl)acetohydroxamate skeleton and testing this series for in vitro growth inhibition using the MTT colorimetric assay against two cell lines, human HeLa cervical and MCF-7 breast adenocarcinomas (Table 1). It emerged from these experiments that the substitution on the benzene ring of the indole moiety (R^2≠H) was not tolerated (e.g., 3abfa and 3acfa), whereas the nitrogen could be derivatized (R^1≠H) with only a small activity drop (e.g., 3bafa vs 3aafa).
(§1) Human cancer cell lines were obtained from the American Type Culture Collection (ATCC, Manassas, Va., USA), the European Collection of Cell Culture (ECACC, Salisbury, UK) and the Deutsche Sammlung von Mikroorganismen and Zellkulturen (DSMZ, Braunschweig, Germany). Human cervical adenocarcinoma HeLa cells were cultured in DMEM supplemented with 10% fetal bovine serum (FBS). Human mammary carcinoma MCF-7 cells were cultured in RPMI supplemented with 10% FBS. The U87 cells (ATCC HTB-14) were cultured in DMEM culture medium, while the A549 cells (DSMZ ACC107) were cultured in RPMI culture medium supplemented with 10% heat-inactivated FBS. The glioblastoma multiforme Hs683 (ATCC HTB-138) and the T98G (ATCC CRL-1690) cell lines were cultivated in DMEM supplemented with 10% FBS. The Human uterine sarcoma MES-SA and MES-SA/Dx5 cells were cultured in RPMI-1640 medium supplemented with 10% FBS with MES SA/Dx5 maintained in the presence of 500 nM Doxorubicin (Sigma). SKMEL-28 cells (ATCC HTB72) and U373 glioblastoma cells (ECACC 08061901) were cultured in RPMI culture medium supplemented with 10% heat-inactivated FBS. Cell culture media were supplemented with 4 mM glutamine (Lonza code BE17-605E), 100 μg/mL gentamicin (Lonza code 17-5182), and penicillin-streptomycin (200 units/ml and 200 μg/ml) (Lonza code 17-602E). Neurosphere culture GBM 031810 was established using known methods and maintained in Neurobasal medium (Invitrogen Carlsbad, Calif.) with B27 supplement (20 ul/ml; Invitrogen), Glutamax (10 ul/ml; Invitrogen), fibroblast growth factor-2 (20 ng/ml; Peprotech, Rocky Hill, N.J., USA), epidermal growth factor (20 ng/ml; Peprotech), heparin (32 IE/ml; Sigma Aldrich, St. Louis, Mo.), and penicillin-streptomycin (1×, Invitrogen). Growth factors and heparin were renewed twice weekly. All cell lines were cultured in T25 flasks, maintained and grown at 37° C., 95% humidity, 5% CO2.
(§2) Antiproliferative properties of the synthesized compounds were evaluated by the MTT assay. All compounds were dissolved in DMSO at a concentration of either 100 mM or 50 mM prior to cell treatment. The cells were trypsinized and seeded at 4×10^3 cells per well into 96-well plates. The cells were grown for 24 h, treated with compounds at concentrations ranging from 0.001 to 100 μM and incubated for 48 h in 200 μL media. 20 μL of MTT reagent in serum free medium (5 mg/mL) was added to each well and incubated further for 2 h. Media was removed and the resulting formazan crystals were re-solubilized in 200 μL of DMSO. A490 was measured using a Molecular Devices Thermomax plate reader. The experiments were performed in quadruplicate and repeated at least twice for each compound per cell line. Cells treated with 0.1% DMSO were used as a negative control; 1 μM phenyl arsine oxide (PAO) was used as a positive control.

The subject of the next test is U373 glioblastoma cells. The test can be described thus: Quantitative videomicroscopy, U373. It counts as cell-based, human. Conditions: 25 μM. Here is the method: To obtain insight into the effectiveness of 2-aryl-2-(3-indolyl)acetohydroxamates against apoptosis-resistant cancers, computer-assisted phase-contrast microscopy (quantitative videomicroscopy) was employed to observe the phenotypic morphological changes in cancer cells as they are treated with these compounds. […] Based on the phase contrast pictures obtained by means of quantitative videomicroscopy, a global growth ratio (GGR) was calculated, which corresponds to the ratio of the mean number of cells present in a given image captured in the experiment (in this case after 24, 48 and 72 h) to the number of cells present in the first image (at 0 h). The ratio obtained in the 3aafa-treated experiment was then divided by the ratio obtained in the control. […] Thus, the GGR calculations are consistent with the MTT colorimetric data and indicate that it is the cytostatic properties associated with the hydroxamates that are responsible for their antiproliferative effects against apoptosis-resistant cancer cells, at least at relevant concentrations (slightly above the GI50 values).
Human cancer cell lines were obtained from the American Type Culture Collection (ATCC, Manassas, Va., USA), the European Collection of Cell Culture (ECACC, Salisbury, UK) and the Deutsche Sammlung von Mikroorganismen and Zellkulturen (DSMZ, Braunschweig, Germany). […]

The subject of test [2] is MES-SA uterine sarcoma cells. Put plainly: MTT antiproliferative assay, MES-SA. It counts as cell-based. Conditions: Homo sapiens, 48 h treatment, ± SD, read-out: GI50 in vitro, MES-SA. Here is the method:
Compared with the intrinsic drug resistance, as described above for such cancers as glioblastoma and melanoma, a large variety of tumors can also develop resistance to anticancer drugs resulting in MDR as explained previously. To assess whether the hydroxamates can overcome this resistance mechanism, selected hydroxamates were tested against MDR cells (Table 4). The MDR uterine sarcoma cell line MES-SA/Dx5 was utilized for this experiment. This cell line was established from the parent uterine sarcoma MES-SA, grown in the presence of increasing concentrations of doxorubicin and known to be resistant to a number of P-gp substrates. […] In contrast, there was only a small variation in the sensitivities of the two cell lines towards the hydroxamates indicating their potential to overcome clinical multi-drug resistance.
as §1, §2

The test system of another test is U87 glioblastoma cells. The test can be described thus: MTT antiproliferative assay, U87. Type of test: cell-based, human. Here is the method:
As part of the ongoing efforts aimed at identification of compounds active against cancer cells displaying resistance to proapoptotic agents, the selected 2-aryl-2-(3-indolyl)-acetohydroxamates were evaluated for in vitro growth inhibition against a panel of additional cancer cell lines including those resistant to various proapoptotic stimuli, such as human T98G and U87 glioblastoma and human A549 non-small-cell-lung cancer (NSCLC), as well as an apoptosis-sensitive tumor model, such as human Hs683 anaplastic oligodendroglioma, used as a reference. The data reveal that for the most part these compounds retain the single-digit antiproliferatve GI50 values in this challenging cancer cell panel.
as §1, §2

The test system of another test is U87 glioma cells. The test can be described thus: Redifferentiation of U87 cells to an astrocytic phenotype. Conditions: GI50 concentration (7 μM, 33-day treatment, FIG. 5C). Type of test: cell-based, human. On the procedure: Although such redifferentiation processes are known, there are only a few small molecule agents reported to induce these epigenetic transformations.
U87 cells were plated at a density of 5×10^4 cells per well in 24-well plate in DMEM supplemented with 10% FBS. The following day, the cells in each well were re-fed with 1 mL of fresh DMEM/10% FBS, and treated with 3aafa to a final concentration between 15 and 5 μM. Cells were placed into the CO2 incubator and media was not replaced for the duration of the experiment.

The GI50 is the concentration that inhibits growth by half. On to `O=C(NO)C(c1ccccc1)c1c(-c2ccc3ccccc3c2)[nH]c2ccccc12` (stereo not shown) [Compound 3aafa], for which the GI50 in test [1] worked out at 3.6 ± 0.5 µM; in test [2], 2 ± 0.2 µM; with U87 glioblastoma cells (Homo sapiens, 48 h treatment, MTT, ± SD, read-out: GI50 in vitro, U87), 9.5 ± 0.3 µM. The “phenotypic effect, U373” value with U373 glioblastoma cells (slightly exceeding GI50, FIG. 4) is recorded as “inhibits cancer cell proliferation without inducing cell death”. The “global growth ratio (GGR), U373” value with U373 glioblastoma cells (72 h observation, treated/control) was “ca. 0.3”. Moreover, in the test with U87 glioblastoma cells (FIG. 3, increasing concentration), the “activity against cell populations resistant to proapoptotic agents, U87” value is recorded as “potent growth inhibitory properties against most of the cells”. Also, the “phenotypic morphological changes of U87 cells” value in the test on U87 glioma cells is “ceased to replicate and appeared to undergo redifferentiation to a non-malignant state resembling an astrocytic phenotype”.
